Test results published in ChEMBL document CHEMBL4507303, “Data for DCP probe TP-004” (2021).

Experiments:
[1] = system: Tyrosine-protein kinase ABL1 (Homo sapiens), P00519 [T315I]; settings: Compound concentration 1000.0 nM
[2] = biological target: Cytoplasmic tyrosine-protein kinase BMX (Homo sapiens) (UniProt P51813); settings: Compound concentration 1000.0 nM
[3] = biological target: Calcium/calmodulin-dependent protein kinase type 1G (Homo sapiens) (UniProt Q96NX5); settings: Compound concentration 1000.0 nM
[4] = biological target: Calcium/calmodulin-dependent protein kinase type II subunit gamma (Homo sapiens) (UniProt Q13555); settings: Compound concentration 1000.0 nM
[5] = biological target: Death-associated protein kinase 1 (Homo sapiens) (UniProt P53355); settings: Compound concentration 1000.0 nM
[6] = biological target: Ephrin type-B receptor 1 (Homo sapiens) (UniProt P54762); settings: Compound concentration 1000.0 nM
[7] = biological target: Mitogen-activated protein kinase 15 (Homo sapiens) (UniProt Q8TD08); settings: Compound concentration 1000.0 nM
Chain of Mitogen-activated protein kinase 15 (Homo sapiens) (Q8TD08 whole entry): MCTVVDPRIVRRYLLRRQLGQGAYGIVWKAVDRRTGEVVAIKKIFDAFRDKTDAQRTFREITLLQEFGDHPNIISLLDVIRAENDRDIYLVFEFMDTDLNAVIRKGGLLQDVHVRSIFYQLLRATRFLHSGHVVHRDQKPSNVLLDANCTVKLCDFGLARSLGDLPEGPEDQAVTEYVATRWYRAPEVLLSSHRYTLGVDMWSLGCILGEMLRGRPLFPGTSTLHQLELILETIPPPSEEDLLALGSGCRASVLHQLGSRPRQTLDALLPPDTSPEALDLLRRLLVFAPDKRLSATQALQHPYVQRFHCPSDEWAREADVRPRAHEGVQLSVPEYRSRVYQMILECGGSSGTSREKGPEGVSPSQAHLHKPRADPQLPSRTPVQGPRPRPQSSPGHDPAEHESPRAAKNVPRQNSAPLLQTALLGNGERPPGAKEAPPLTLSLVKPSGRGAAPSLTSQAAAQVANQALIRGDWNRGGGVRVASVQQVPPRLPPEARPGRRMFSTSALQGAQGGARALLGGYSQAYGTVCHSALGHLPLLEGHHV

[8] = system: Receptor-type tyrosine-protein kinase FLT3 (Homo sapiens), P36888 [D835Y]; settings: Compound concentration 1000.0 nM
[9] = system: Receptor-type tyrosine-protein kinase FLT3 (Homo sapiens), P36888 [K663Q]; settings: Compound concentration 1000.0 nM
[10] = biological target: Tyrosine-protein kinase HCK (Homo sapiens) (UniProt P08631); settings: Compound concentration 1000.0 nM
Chain of Tyrosine-protein kinase HCK (Homo sapiens) (P08631 2-526 limits assumed): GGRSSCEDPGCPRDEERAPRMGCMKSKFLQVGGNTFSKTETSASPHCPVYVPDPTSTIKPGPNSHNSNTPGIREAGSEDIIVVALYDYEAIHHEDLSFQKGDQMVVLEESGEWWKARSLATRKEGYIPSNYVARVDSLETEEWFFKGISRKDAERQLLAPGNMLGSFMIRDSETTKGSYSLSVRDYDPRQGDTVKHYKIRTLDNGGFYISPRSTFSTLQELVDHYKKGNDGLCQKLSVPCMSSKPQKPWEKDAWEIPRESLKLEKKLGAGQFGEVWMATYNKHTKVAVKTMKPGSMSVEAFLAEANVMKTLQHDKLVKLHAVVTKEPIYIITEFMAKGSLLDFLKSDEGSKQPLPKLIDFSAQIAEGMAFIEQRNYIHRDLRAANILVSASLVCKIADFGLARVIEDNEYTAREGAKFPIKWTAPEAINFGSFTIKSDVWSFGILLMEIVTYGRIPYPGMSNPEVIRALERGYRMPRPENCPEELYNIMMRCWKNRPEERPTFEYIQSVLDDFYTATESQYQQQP

[11] = biological target: Mitogen-activated protein kinase kinase kinase 13 (Homo sapiens) (UniProt O43283); settings: Compound concentration 1000.0 nM
[12] = biological target: Mitogen-activated protein kinase kinase kinase kinase 3 (Homo sapiens) (UniProt Q8IVH8); settings: Compound concentration 1000.0 nM
[13] = biological target: MAP kinase-activated protein kinase 2 (Homo sapiens) (UniProt P49137); settings: Compound concentration 1000.0 nM
[14] = biological target: Dual specificity mitogen-activated protein kinase kinase 5 (Homo sapiens) (UniProt Q13163); settings: Compound concentration 1000.0 nM
Chain of Dual specificity mitogen-activated protein kinase kinase 5 (Homo sapiens) (Q13163 whole entry): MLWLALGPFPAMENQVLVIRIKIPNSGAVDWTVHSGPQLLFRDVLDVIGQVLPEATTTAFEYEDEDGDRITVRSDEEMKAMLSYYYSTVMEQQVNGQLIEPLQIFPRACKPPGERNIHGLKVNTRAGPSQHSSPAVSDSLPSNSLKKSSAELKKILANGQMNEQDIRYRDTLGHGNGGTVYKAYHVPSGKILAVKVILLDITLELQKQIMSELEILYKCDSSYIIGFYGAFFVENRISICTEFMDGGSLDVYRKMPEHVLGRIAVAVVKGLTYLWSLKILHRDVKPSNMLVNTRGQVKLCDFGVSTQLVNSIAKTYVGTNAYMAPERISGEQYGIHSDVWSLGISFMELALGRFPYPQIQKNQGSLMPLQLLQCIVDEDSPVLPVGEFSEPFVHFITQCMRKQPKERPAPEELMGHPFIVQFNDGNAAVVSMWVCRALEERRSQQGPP

[15] = biological target: Serine/threonine-protein kinase mTOR (Homo sapiens) (UniProt P42345); settings: Compound concentration 1000.0 nM
[16] = biological target: Serine/threonine-protein kinase Nek2 (Homo sapiens) (UniProt P51955); settings: Compound concentration 1000.0 nM
[17] = biological target: Mitogen-activated protein kinase kinase kinase 14 (Homo sapiens) (UniProt Q99558); settings: Compound concentration 1000.0 nM
[18] = biological target: Cyclin-dependent kinase 17 (Homo sapiens) (UniProt Q00537); settings: Compound concentration 1000.0 nM
[19] = biological target: Phosphorylase b kinase regulatory subunit alpha, liver isoform (Homo sapiens) (UniProt P46019); settings: Compound concentration 1000.0 nM
[20] = biological target: Phosphatidylinositol 3-kinase C2 domain-containing subunit gamma (Homo sapiens) (UniProt O75747); settings: Compound concentration 1000.0 nM
[21] = system: Phosphatidylinositol 4,5-bisphosphate 3-kinase catalytic subunit alpha isoform (Homo sapiens), P42336 [Q546K]; settings: Compound concentration 1000.0 nM
Chain of Phosphatidylinositol 4,5-bisphosphate 3-kinase catalytic subunit alpha isoform (Homo sapiens), P42336 [Q546K] (P42336 whole entry Q546K, canonical isoform): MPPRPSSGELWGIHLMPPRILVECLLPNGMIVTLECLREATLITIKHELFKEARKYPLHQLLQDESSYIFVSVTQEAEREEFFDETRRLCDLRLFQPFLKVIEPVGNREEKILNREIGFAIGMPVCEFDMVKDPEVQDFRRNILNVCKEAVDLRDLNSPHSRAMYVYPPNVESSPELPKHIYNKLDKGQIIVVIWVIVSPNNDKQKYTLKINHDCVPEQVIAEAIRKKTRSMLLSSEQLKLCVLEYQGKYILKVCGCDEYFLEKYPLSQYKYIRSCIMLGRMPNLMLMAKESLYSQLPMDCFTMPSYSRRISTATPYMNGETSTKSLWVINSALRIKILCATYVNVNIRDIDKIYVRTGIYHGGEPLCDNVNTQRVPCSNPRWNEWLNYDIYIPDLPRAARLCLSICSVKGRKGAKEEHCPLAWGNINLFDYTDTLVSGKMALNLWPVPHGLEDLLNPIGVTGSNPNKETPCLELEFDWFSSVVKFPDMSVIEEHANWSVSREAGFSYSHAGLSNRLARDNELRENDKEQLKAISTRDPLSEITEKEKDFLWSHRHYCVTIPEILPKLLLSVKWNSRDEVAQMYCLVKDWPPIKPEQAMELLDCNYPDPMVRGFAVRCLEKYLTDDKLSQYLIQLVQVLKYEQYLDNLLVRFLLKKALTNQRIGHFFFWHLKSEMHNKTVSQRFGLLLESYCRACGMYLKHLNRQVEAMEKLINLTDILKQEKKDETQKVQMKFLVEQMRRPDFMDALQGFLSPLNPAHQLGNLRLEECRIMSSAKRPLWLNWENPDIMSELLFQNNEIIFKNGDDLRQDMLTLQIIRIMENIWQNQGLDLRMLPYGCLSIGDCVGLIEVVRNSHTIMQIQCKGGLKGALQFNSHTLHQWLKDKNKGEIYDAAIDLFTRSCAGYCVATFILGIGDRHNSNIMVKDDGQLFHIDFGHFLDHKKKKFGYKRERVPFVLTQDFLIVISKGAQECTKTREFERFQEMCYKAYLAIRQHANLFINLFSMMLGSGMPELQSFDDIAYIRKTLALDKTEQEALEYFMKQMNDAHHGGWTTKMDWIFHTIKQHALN

[22] = biological target: Phosphatidylinositol 4,5-bisphosphate 3-kinase catalytic subunit delta isoform (Homo sapiens) (UniProt O00329); settings: Compound concentration 1000.0 nM
[23] = biological target: Serine/threonine-protein kinase PknB (Mycobacterium tuberculosis) (UniProt P9WI81); settings: Compound concentration 1000.0 nM
[24] = biological target: Serine/threonine-protein kinase D1 (Homo sapiens) (UniProt Q15139); settings: Compound concentration 1000.0 nM
Chain of Serine/threonine-protein kinase D1 (Homo sapiens) (Q15139 whole entry): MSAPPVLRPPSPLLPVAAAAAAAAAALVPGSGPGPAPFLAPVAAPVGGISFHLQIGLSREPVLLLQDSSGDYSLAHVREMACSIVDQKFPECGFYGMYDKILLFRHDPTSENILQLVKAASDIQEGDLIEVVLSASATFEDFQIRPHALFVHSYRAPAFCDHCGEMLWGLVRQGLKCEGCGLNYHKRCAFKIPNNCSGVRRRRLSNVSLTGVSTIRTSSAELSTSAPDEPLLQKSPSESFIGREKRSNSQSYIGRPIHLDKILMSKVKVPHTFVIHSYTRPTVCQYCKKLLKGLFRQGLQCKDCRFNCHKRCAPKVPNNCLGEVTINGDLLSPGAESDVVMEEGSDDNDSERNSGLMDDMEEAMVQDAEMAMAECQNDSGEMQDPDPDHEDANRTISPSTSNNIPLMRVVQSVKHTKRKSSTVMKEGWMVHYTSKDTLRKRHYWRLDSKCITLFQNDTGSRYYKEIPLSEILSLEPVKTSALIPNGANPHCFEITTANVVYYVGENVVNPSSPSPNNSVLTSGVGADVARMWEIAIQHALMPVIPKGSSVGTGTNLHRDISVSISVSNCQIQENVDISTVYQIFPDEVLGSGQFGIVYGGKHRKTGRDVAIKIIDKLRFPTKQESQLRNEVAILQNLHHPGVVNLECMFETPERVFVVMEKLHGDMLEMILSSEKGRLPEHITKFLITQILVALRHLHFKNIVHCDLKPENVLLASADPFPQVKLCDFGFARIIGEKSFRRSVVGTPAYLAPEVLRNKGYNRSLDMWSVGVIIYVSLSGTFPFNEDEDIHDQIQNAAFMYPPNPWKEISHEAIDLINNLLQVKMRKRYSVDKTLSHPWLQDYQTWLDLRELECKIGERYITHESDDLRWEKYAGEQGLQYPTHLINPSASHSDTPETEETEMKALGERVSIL

[25] = biological target: cGMP-dependent protein kinase 1 (Homo sapiens) (UniProt Q13976); settings: Compound concentration 1000.0 nM
[26] = system: Proto-oncogene tyrosine-protein kinase receptor Ret (Homo sapiens), P07949 [M918T]; settings: Compound concentration 1000.0 nM
[27] = biological target: Serine/threonine-protein kinase RIO3 (Homo sapiens) (UniProt O14730); settings: Compound concentration 1000.0 nM
[28] = biological target: Ribosomal protein S6 kinase alpha-5 (Homo sapiens) (UniProt O75582); settings: Compound concentration 1000.0 nM
Chain of Ribosomal protein S6 kinase alpha-5 (Homo sapiens) (O75582 whole entry, looked up): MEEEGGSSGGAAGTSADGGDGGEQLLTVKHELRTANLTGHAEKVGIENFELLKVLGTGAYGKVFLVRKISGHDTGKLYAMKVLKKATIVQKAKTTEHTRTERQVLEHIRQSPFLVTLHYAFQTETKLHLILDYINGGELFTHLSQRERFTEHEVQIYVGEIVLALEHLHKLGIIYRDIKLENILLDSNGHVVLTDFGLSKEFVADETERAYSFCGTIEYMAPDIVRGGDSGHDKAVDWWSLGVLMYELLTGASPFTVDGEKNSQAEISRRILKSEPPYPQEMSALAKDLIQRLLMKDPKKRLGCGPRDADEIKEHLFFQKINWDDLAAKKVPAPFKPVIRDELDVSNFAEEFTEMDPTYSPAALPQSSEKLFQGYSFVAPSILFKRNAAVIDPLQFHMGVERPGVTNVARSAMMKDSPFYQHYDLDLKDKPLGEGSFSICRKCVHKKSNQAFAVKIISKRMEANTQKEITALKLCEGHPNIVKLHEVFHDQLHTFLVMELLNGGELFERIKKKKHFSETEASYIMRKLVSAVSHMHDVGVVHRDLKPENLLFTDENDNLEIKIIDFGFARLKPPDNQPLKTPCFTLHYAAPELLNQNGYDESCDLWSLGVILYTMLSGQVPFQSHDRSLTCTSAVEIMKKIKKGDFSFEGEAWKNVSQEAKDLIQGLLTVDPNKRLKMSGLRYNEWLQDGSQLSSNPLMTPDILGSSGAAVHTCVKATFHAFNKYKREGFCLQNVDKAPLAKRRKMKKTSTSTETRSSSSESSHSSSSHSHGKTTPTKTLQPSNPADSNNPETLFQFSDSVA

[29] = biological target: Ribosomal protein S6 kinase alpha-1 (Homo sapiens) (UniProt Q15418); settings: Compound concentration 1000.0 nM
[30] = biological target: NUAK family SNF1-like kinase 2 (Homo sapiens) (UniProt Q9H093); settings: Compound concentration 1000.0 nM
[31] = biological target: Tyrosine-protein kinase SYK (Homo sapiens) (UniProt P43405); settings: Compound concentration 1000.0 nM
[32] = biological target: Serine/threonine-protein kinase TBK1 (Homo sapiens) (UniProt Q9UHD2); settings: Compound concentration 1000.0 nM
Chain of Serine/threonine-protein kinase TBK1 (Homo sapiens) (Q9UHD2 whole entry): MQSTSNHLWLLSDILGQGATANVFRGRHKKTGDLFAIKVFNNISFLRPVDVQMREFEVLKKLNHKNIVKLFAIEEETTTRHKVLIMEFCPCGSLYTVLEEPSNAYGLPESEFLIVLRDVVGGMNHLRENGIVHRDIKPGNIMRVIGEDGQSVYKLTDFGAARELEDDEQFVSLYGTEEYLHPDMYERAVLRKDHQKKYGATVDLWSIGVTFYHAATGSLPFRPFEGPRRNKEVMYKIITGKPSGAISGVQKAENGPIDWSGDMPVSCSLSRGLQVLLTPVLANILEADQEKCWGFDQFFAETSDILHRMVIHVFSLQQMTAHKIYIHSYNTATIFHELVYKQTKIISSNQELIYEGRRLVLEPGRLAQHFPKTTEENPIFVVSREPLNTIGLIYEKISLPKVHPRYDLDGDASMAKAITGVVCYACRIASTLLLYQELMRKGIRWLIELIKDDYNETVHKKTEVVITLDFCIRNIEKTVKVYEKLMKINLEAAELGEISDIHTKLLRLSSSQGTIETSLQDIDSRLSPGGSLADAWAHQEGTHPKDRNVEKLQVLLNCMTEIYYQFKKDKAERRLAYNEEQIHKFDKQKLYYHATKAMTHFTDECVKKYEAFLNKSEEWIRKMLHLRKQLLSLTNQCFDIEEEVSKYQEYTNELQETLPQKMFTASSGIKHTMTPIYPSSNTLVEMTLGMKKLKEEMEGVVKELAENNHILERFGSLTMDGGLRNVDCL

[33] = biological target: Dual specificity testis-specific protein kinase 1 (Homo sapiens) (UniProt Q15569); settings: Compound concentration 1000.0 nM
[34] = biological target: TGF-beta receptor type-1 (Homo sapiens) (UniProt P36897); settings: Compound concentration 1000.0 nM
[35] = biological target: Tyrosine-protein kinase receptor Tie-1 (Homo sapiens) (UniProt P35590); settings: Compound concentration 1000.0 nM
[36] = biological target: Serine/threonine-protein kinase TNNI3K (Homo sapiens) (UniProt Q59H18); settings: Compound concentration 1000.0 nM
[37] = biological target: Transient receptor potential cation channel subfamily M member 6 (Homo sapiens) (UniProt Q9BX84); settings: Compound concentration 1000.0 nM
[38] = biological target: Dual specificity protein kinase TTK (Homo sapiens) (UniProt P33981); settings: Compound concentration 1000.0 nM
[39] = biological target: Vascular endothelial growth factor receptor 2 (Homo sapiens) (UniProt P35968); settings: Compound concentration 1000.0 nM
[40] = biological target: 5-hydroxytryptamine receptor 7 (Homo sapiens) (UniProt P34969); settings: Compound concentration 10.0 uM
[41] = biological target: Sodium-dependent noradrenaline transporter (Homo sapiens) (UniProt P23975); settings: Compound concentration 10.0 uM
[42] = biological target: Mu-type opioid receptor (Homo sapiens) (UniProt P35372); settings: Compound concentration 10.0 uM
[43] = biological target: Histamine H2 receptor (Homo sapiens) (UniProt P25021); settings: Compound concentration 10.0 uM
[44] = biological target: Muscarinic acetylcholine receptor M4 (Homo sapiens) (UniProt P08173); settings: Compound concentration 10.0 uM
[45] = biological target: Beta-3 adrenergic receptor (Homo sapiens) (UniProt P13945); settings: Compound concentration 10.0 uM

Cc1nc(N2CC[C@@H](O)C2)ncc1-c1cc(C(F)(F)F)cc2[nH]ncc12 [TP-004]
inactive: residual activity [1] 78% | residual activity [2] 100% | residual activity [3] 100% | residual activity [4] 100% | residual activity [5] 89% | residual activity [6] 73% | residual activity [7] 86% | residual activity [8] 80% | residual activity [9] 89% | residual activity [10] 100% | residual activity [11] 56% | residual activity [12] 100% | residual activity [13] 95% | residual activity [14] 68% | residual activity [15] 100% | residual activity [16] 92% | residual activity [17] 68% | residual activity [18] 91% | residual activity [19] 100% | residual activity [20] 90% | residual activity [21] 82% | residual activity [22] 72% | residual activity [23] 89% | residual activity [24] 75% | residual activity [25] 77% | residual activity [26] 100% | residual activity [27] 100% | residual activity [28] 81% | residual activity [29] 100% | residual activity [30] 67% | residual activity [31] 100% | residual activity [32] 82% | residual activity [33] 94% | residual activity [34] 100% | residual activity [35] 91% | residual activity [36] 87% | residual activity [37] 52% | residual activity [38] 100% | residual activity [39] 53% | inhibition [40] 10.8% | inhibition [41] 36.9% | inhibition [42] 7.79% | inhibition [43] -8.45% | inhibition [44] 5.7% | inhibition [45] 20.7%
